Assay: Stability across narrow pH 2-3.6 (1 mg/mL; 10 mM citric acid and glycine)
Type: physicochemical
Set-up: Assay: unit not given here
Settings: for Impurities: in %
Experimental: Buffer solutions containing ca. 10 mM each of citric acid and glycine in the pH range 2-3.6 were prepared by titrating 250 mL of a single stock containing both buffer agents with 1N NaOH/1N HCl and removing 50 mL aliquots at predetermined pH values. (XXXVI) solutions at 1 mg/mL were prepared in the buffers by dissolving ˜25 mg of (XXXVI) in ca. 23 mL of a given buffer, adjusting the pH to the target and making up the volume to 25.0 mL in a volumetric flask. Each of the buffered (XXXV) solutions was filtered through a 0.2 μm polyether sulfone syringe filter into a volumetric flask previously rinsed with 70% ethanol and dried in a laminar flow hood. Following filtration, each buffered (XXXV) solution was split into 9 aliquots in 5 mL serum vials previously rinsed with 70% ethanol and dried in a laminar flow hood. Filtration and preparation of aliquots were performed in a laminar flow hood. Of the nine aliquots, three aliquots were stored at each 40° C. and 60° C., two aliquots were stored at 25° C. and one aliquot was submitted for T0 testing. Samples were evaluated for pH, assay and related substances at T0 and, following 1 week, 2 weeks and 4 weeks of storage at 40° C. and 60° C. Samples stored at 25° C. served as controls to be analyzed if necessary

In the case of CCCNc1nc(NCCC)nc(N(C)OC)n1 [XXXV, N-(4,6-Bis-n-propylamino-[1,3,5]triazin-2-yl)-N,O-dimethyl-hydroxylamine], the “pH dependence of impurity levels” value (40° C. and 60° C. storage, pH 2-3.6) is reported as “impurity levels decreased significantly with increasing pH”, the “impurity levels at pH 2 vs. impurity levels at pH 3.6” value (pH range 2-3.6) is reported as ≥ 10 fold and the Assay (target pH 2.0, 40° C. 1 wk) is reported as 0.959. For the same compound, the pH (target pH 2.0, 40° C. 1 wk) was 2.00, the Impurities (target pH 2.0, 40° C. 1 wk) was 0.99 and the Assay (target pH 2.0, 40° C. 2 wk) was 0.955. The pH (target pH 2.0, 40° C. 2 wk) was 1.98, the Impurities (target pH 2.0, 40° C. 2 wk) was 1.55 and the Assay (target pH 2.0, 40° C. 4 wk) was 0.956. It also gave a pH (target pH 2.0, 40° C. 4 wk) of 1.98, an Impurities (target pH 2.0, 40° C. 4 wk) of 2.84 and an Assay (target pH 2.0, 60° C. 1 wk) of 0.913. For the same compound, the pH (target pH 2.0, 60° C. 1 wk) was 2.00, the Impurities (target pH 2.0, 60° C. 1 wk) was 3.87 and the Assay (target pH 2.0, 60° C. 2 wk) was 0.851. The pH (target pH 2.0, 60° C. 2 wk) was 1.97, the Impurities (target pH 2.0, 60° C. 2 wk) was 7.56 and the Assay (target pH 2.0, 60° C. 4 wk) was 0.768. It also gave a pH (target pH 2.0, 60° C. 4 wk) of 1.89, an Impurities (target pH 2.0, 60° C. 4 wk) of 13.99 and an Assay (target pH 2.0, initial) of 0.981. It also gave a pH (target pH 2.0, initial) of 2.00, an Impurities (target pH 2.0, initial) of 0.14 and an Assay (target pH 2.3, 40° C. 1 wk) of 0.984. It also gave a pH (target pH 2.3, 40° C. 1 wk) of 2.36, an Impurities (target pH 2.3, 40° C. 1 wk) of 0.47 and an Assay (target pH 2.3, 40° C. 2 wk) of 0.993. The pH (target pH 2.3, 40° C. 2 wk) was 2.32, the Impurities (target pH 2.3, 40° C. 2 wk) was 0.63 and the Assay (target pH 2.3, 40° C. 4 wk) was 0.995. It also gave a pH (target pH 2.3, 40° C. 4 wk) of 2.33, an Impurities (target pH 2.3, 40° C. 4 wk) of 1.70 and an Assay (target pH 2.3, 60° C. 1 wk) of 0.961. The pH (target pH 2.3, 60° C. 1 wk) was 2.36, the Impurities (target pH 2.3, 60° C. 1 wk) was 1.81 and the Assay (target pH 2.3, 60° C. 2 wk) was 0.932. It also gave a pH (target pH 2.3, 60° C. 2 wk) of 2.34, an Impurities (target pH 2.3, 60° C. 2 wk) of 3.53 and an Assay (target pH 2.3, 60° C. 4 wk) of 0.916. The pH (target pH 2.3, 60° C. 4 wk) was 2.28, the Impurities (target pH 2.3, 60° C. 4 wk) was 6.30 and the Assay (target pH 2.3, initial) was 0.987. It also gave a pH (target pH 2.3, initial) of 2.33, an Impurities (target pH 2.3, initial) of 0.09 and an Assay (target pH 2.7, 40° C. 1 wk) of 0.981. The pH (target pH 2.7, 40° C. 1 wk) was 2.73, the Impurities (target pH 2.7, 40° C. 1 wk) was 0.22 and the Assay (target pH 2.7, 40° C. 2 wk) was 0.985. The pH (target pH 2.7, 40° C. 2 wk) was 2.72, the Impurities (target pH 2.7, 40° C. 2 wk) was 0.37 and the Assay (target pH 2.7, 40° C. 4 wk) was 1.019. It also gave a pH (target pH 2.7, 40° C. 4 wk) of 2.73, an Impurities (target pH 2.7, 40° C. 4 wk) of 0.61 and an Assay (target pH 2.7, 60° C. 1 wk) of 0.978. The pH (target pH 2.7, 60° C. 1 wk) was 2.75, the Impurities (target pH 2.7, 60° C. 1 wk) was 0.97 and the Assay (target pH 2.7, 60° C. 2 wk) was 1.144. The pH (target pH 2.7, 60° C. 2 wk) was 2.74, the Impurities (target pH 2.7, 60° C. 2 wk) was 1.76 and the Assay (target pH 2.7, 60° C. 4 wk) was 0.987. It also gave a pH (target pH 2.7, 60° C. 4 wk) of 2.67, an Impurities (target pH 2.7, 60° C. 4 wk) of 3.09 and an Assay (target pH 2.7, initial) of 0.987. For the same compound, the pH (target pH 2.7, initial) was 2.72, the Assay (target pH 3.0, 40° C. 1 wk) was 1.01 and the pH (target pH 3.0, 40° C. 1 wk) was 3.04. It also gave an Impurities (target pH 3.0, 40° C. 1 wk) of 0.21, an Assay (target pH 3.0, 40° C. 2 wk) of 0.987 and a pH (target pH 3.0, 40° C. 2 wk) of 3.05. The Impurities (target pH 3.0, 40° C. 2 wk) was 0.34, the Assay (target pH 3.0, 40° C. 4 wk) was 1.027 and the pH (target pH 3.0, 40° C. 4 wk) was 3.04. The Impurities (target pH 3.0, 40° C. 4 wk) was 0.58, the Assay (target pH 3.0, 60° C. 1 wk) was 0.991 and the pH (target pH 3.0, 60° C. 1 wk) was 3.05. It also gave an Impurities (target pH 3.0, 60° C. 1 wk) of 0.61, an Assay (target pH 3.0, 60° C. 2 wk) of 0.975 and an Impurities (target pH 3.0, 60° C. 2 wk) of 1.27. It also gave an Assay (target pH 3.0, 60° C. 4 wk) of 0.987, an Impurities (target pH 3.0, 60° C. 4 wk) of 1.82 and an Assay (target pH 3.0, initial) of 1.005. The pH (target pH 3.0, initial) was 3.02, the Assay (target pH 3.3, 40° C. 1 wk) was 1.02 and the pH (target pH 3.3, 40° C. 1 wk) was 3.35. It also gave an Assay (target pH 3.3, 40° C. 2 wk) of 1.01, a pH (target pH 3.3, 40° C. 2 wk) of 3.35 and an Assay (target pH 3.3, 40° C. 4 wk) of 1.047. For the same compound, the pH (target pH 3.3, 40° C. 4 wk) was 3.34, the Impurities (target pH 3.3, 40° C. 4 wk) was 0.25 and the Assay (target pH 3.3, 60° C. 1 wk) was 0.997. For the same compound, the pH (target pH 3.3, 60° C. 1 wk) was 3.36, the Impurities (target pH 3.3, 60° C. 1 wk) was 0.41 and the Assay (target pH 3.3, 60° C. 2 wk) was 0.995. For the same compound, the pH (target pH 3.3, 60° C. 2 wk) was 3.37, the Impurities (target pH 3.3, 60° C. 2 wk) was 0.69 and the Assay (target pH 3.3, 60° C. 4 wk) was 1.027. It also gave a pH (target pH 3.3, 60° C. 4 wk) of 3.34, an Impurities (target pH 3.3, 60° C. 4 wk) of 1.26 and an Assay (target pH 3.3, initial) of 1.019. It also gave a pH (target pH 3.3, initial) of 3.31, an Assay (target pH 3.6, 40° C. 1 wk) of 0.991 and a pH (target pH 3.6, 40° C. 1 wk) of 3.64. For the same compound, the Assay (target pH 3.6, 40° C. 2 wk) was 0.985, the pH (target pH 3.6, 40° C. 2 wk) was 3.70 and the Assay (target pH 3.6, 40° C. 4 wk) was 0.991. It also gave a pH (target pH 3.6, 40° C. 4 wk) of 3.64, an Impurities (target pH 3.6, 40° C. 4 wk) of 0.17 and an Assay (target pH 3.6, 60° C. 1 wk) of 0.979. The pH (target pH 3.6, 60° C. 1 wk) was 3.65, the Impurities (target pH 3.6, 60° C. 1 wk) was 0.36 and the pH (target pH 3.6, 60° C. 2 wk) was 3.70. It also gave an Impurities (target pH 3.6, 60° C. 2 wk) of 0.62, a pH (target pH 3.6, 60° C. 4 wk) of 3.64 and an Impurities (target pH 3.6, 60° C. 4 wk) of 0.99. For the same compound, the Assay (target pH 3.6, initial) was 0.996, the pH (target pH 3.6, initial) was 3.62 and the Impurities (target pH 3.6, initial) was 0.12.
